Measurements from the supplement of paper PMC11208160.

Test: recombinant UMI read abundance after kanamycin selection (control-corrected) (log10(CPM+1)); higher = more efficient recombination; extreme values may be limits of the assay; sequences stand for … in AGTGCAGAGAAAATCGGCCAGTTTTCTCTGCCTGCAGTCCGCATGCCGTGGGACCCCTTGGGTTCTAACCTGTTGCCTAGATTTATGCAGCGGACTGCCTTTCTCCCAAAGTGATAAACCGG…AGGTTGGTTTCACT; site = the 11-nt donor
How it was run: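 For the IS621 bridge recombinase, a pooled Escherichia coli screen tested donor and donor-binding-loop pairs. Cells received the pair library together with a target plasmid encoding a fixed target and T7-inducible recombinase, then went onto IPTG (0.07 mM) plus kanamycin or unselected plates in duplicate. After PCR across the donor–target junction and sequencing, recombinant UMI counts were normalized to CPM, averaged, and scaled by control-derived factors. Each value is given as log10(CPM+1).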

In order of rising “recombinant UMI read abundance (log10)” value:
1. GGTACGTCATGGACCGGTTTTCCCGGTAATCCGTATTTGAT (site GGTACGTCTAG)  0
2. GGTACGTCATGGACCGGTTTTCCCGGTAATCCGTATTTGTA (site GGTACGTCTGA)  0
3. GGTACTGCATGGACCGGTTTTCCCGGTAATCCGTATTTGCC (site GATACTGCTGG)  0
4. GGTACTGCATGGACCGGTTTTCCCGGTAATCCGTATTTGCC (site GTTACTGCTGG)  0
5. GGTATTACATGGACCGGTTTTCCCGGTAATCCGTATTTGAG (site GGTATTACTCT)  0
6. GGTCACCCATGGACCGGTTTTCCCGGTAATCCGTATTTGTT (site GGACACCCTAA)  0
7. GGTCCAACATGGACCGGTTTTCCCGGTAATCCGTATTTGCA (site GGTCCAACTTG)  0
8. GGTCCAACATGGACCGGTTTTCCCGGTAATCCGTATTTGTA (site CGTCCAACTTA)  0
9. GGTCCAACATGGACCGGTTTTCCCGGTAATCCGTATTTGTA (site GGTCCAACTGA)  0
10. GGTCCAACATGGACCGGTTTTCCCGGTAATCCGTATTTGTG (site GGTCCAACTGA)  0
11. GGTGAACCATGGACCGGTTTTCCCGGTAATCCGTATTTGGG (site GGTGAACCTCC)  0
12. GGTCACCCATGGACCGGTTTTCCCGGTAATCCGTATTTGTT (site GGTCACCCTAA)  0.00231
13. GGTCCAACATGGACCGGTTTTCCCGGTAATCCGTATTTGTA (site TGTCCAACTTA)  0.00249
14. GGTATGTCATGGACCGGTTTTCCCGGTAATCCGTATTTGTT (site GGTAGGTCTAA)  0.00327
15. GGTCCAACATGGACCGGTTTTCCCGGTAATCCGTATTTGTA (site GGTACAACTTA)  0.00331
16. GGTCCAACATGGACCGGTTTTCCCGGTAATCCGTATTTGTA (site GGGCCAACTTA)  0.00345
17. GGTCCAACATGGACCGGTTTTCCCGGTAATCCGTATTTGTA (site GGTCTAACTTA)  0.00385
18. GGTCCAACATGGACCGGTTTTCCCGGTAATCCGTATTTGTA (site GCTCCAACTTA)  0.00409
19. GGTGCAACATGGACCGGTTTTCCCGGTAATCCGTATTTGTA (site GGTCCAACTTA)  0.00521
20. GGTCCAACATGGACCGGTTTTCCCGGTAATCCGTATTTGTA (site GGACCAACTTA)  0.00547
21. GGTCCAACATGGACCGGTTTTCCCGGTAATCCGTATTTGTG (site GGTCCAACTCA)  0.00564
22. GGTATGTCATGGACCGGTTTTCCCGGTAATCCGTATTTGTT (site GGTAAGTCTAA)  0.00575
23. GGTCCAACATGGACCGGTTTTCCCGGTAATCCGTATTTGTA (site GGTCCCACTTA)  0.00585
24. GGTACGTCATGGACCGGTTTTCCCGGTAATCCGTATTTGAT (site GGTACGTCTAC)  0.00659
25. GGTCCAACATGGACCGGTTTTCCCGGTAATCCGTATTTGTA (site GATCCAACTTA)  0.0069
26. GGTGCAACATGGACCGGTTTTCCCGGTAATCCGTATTTGTA (site GGTTCAACTTA)  0.00709
27. GGTCAGCCATGGACCGGTTTTCCCGGTAATCCGTATTTGGG (site GGTCAGCCTCC)  0.00726
28. GGTACGTCATGGACCGGTTTTCCCGGTAATCCGTATTTGTA (site GGTACGTCTCA)  0.00737
29. GGTCCAACATGGACCGGTTTTCCCGGTAATCCGTATTTGTG (site GGTCCAACTAA)  0.00832
30. GGTCCAACATGGACCGGTTTTCCCGGTAATCCGTATTTGTG (site GGTCCAACTTA)  0.00906
31. GGTCCAACATGGACCGGTTTTCCCGGTAATCCGTATTTGTA (site GGTCCTACTTA)  0.00929
32. GGTGCAACATGGACCGGTTTTCCCGGTAATCCGTATTTGTA (site GGTACAACTTA)  0.01
33. GGTCCAACATGGACCGGTTTTCCCGGTAATCCGTATTTGTA (site GTTCCAACTTA)  0.0101
34. GGTCCAACATGGACCGGTTTTCCCGGTAATCCGTATTTGTA (site GGTCCACCTTA)  0.011
35. GGTCCAACATGGACCGGTTTTCCCGGTAATCCGTATTTGTA (site GGTTCAACTTA)  0.0111
36. GGTCCAACATGGACCGGTTTTCCCGGTAATCCGTATTTGTA (site GGTCCAACTTT)  0.0114
37. GGTCACCCATGGACCGGTTTTCCCGGTAATCCGTATTTGTT (site GGCCACCCTAA)  0.0117
38. GGTCCAACATGGACCGGTTTTCCCGGTAATCCGTATTTGCA (site GGTCCAACTTA)  0.0117
39. GGTACAACATGGACCGGTTTTCCCGGTAATCCGTATTTGTA (site GGTGCAACTTA)  0.0119
40. GGTCCAACATGGACCGGTTTTCCCGGTAATCCGTATTTGTA (site GGTGCAACTTA)  0.0122
41. GGTACGCCATGGACCGGTTTTCCCGGTAATCCGTATTTGTT (site GGTACGGCTAA)  0.0123
42. GGTCACCCATGGACCGGTTTTCCCGGTAATCCGTATTTGTT (site GGGCACCCTAA)  0.0126
43. GGTACAACATGGACCGGTTTTCCCGGTAATCCGTATTTGTA (site GGTTCAACTTA)  0.0127
44. GGTCCAACATGGACCGGTTTTCCCGGTAATCCGTATTTGTA (site AGTCCAACTTA)  0.0127
45. GGTACGTCATGGACCGGTTTTCCCGGTAATCCGTATTTGAT (site GGTACGTCTAA)  0.0132
46. GGTCCAACATGGACCGGTTTTCCCGGTAATCCGTATTTGCA (site GGTCCAACTTT)  0.0134
47. GGTACGCCATGGACCGGTTTTCCCGGTAATCCGTATTTGTT (site GGTACGCCTAA)  0.0149
48. GGTCCAACATGGACCGGTTTTCCCGGTAATCCGTATTTGTA (site GGTCCAGCTTA)  0.015
49. GGTCCAACATGGACCGGTTTTCCCGGTAATCCGTATTTGTA (site GGTCCAACTTG)  0.016
50. GGTCCAACATGGACCGGTTTTCCCGGTAATCCGTATTTGTA (site GGCCCAACTTA)  0.0162
51. GGTCCAACATGGACCGGTTTTCCCGGTAATCCGTATTTGTA (site GGTCGAACTTA)  0.0172
52. GGTCCAACATGGACCGGTTTTCCCGGTAATCCGTATTTGTA (site GGTCCAACTCA)  0.0175
53. GGTCCAACATGGACCGGTTTTCCCGGTAATCCGTATTTGTA (site GGTCCGACTTA)  0.0188
54. GGTCCAACATGGACCGGTTTTCCCGGTAATCCGTATTTGTA (site GGTCCAACTAA)  0.0196
55. GGTCCAACATGGACCGGTTTTCCCGGTAATCCGTATTTGTA (site GGTCAAACTTA)  0.0208
56. GGTCCAACATGGACCGGTTTTCCCGGTAATCCGTATTTGTA (site GGTCCAACTTC)  0.0212
57. GGTATGTCATGGACCGGTTTTCCCGGTAATCCGTATTTGTT (site GGTACGTCTAA)  0.0321
58. GGTACGCCATGGACCGGTTTTCCCGGTAATCCGTATTTGTT (site GGTACGACTAA)  0.0526
59. GGTACGTCATGGACCGGTTTTCCCGGTAATCCGTATTTGTA (site GGTACGTCTAA)  0.0713
60. GGTCCAACATGGACCGGTTTTCCCGGTAATCCGTATTTGCA (site GGTCCAACTTC)  0.107
61. GGTGCAACATGGACCGGTTTTCCCGGTAATCCGTATTTGTA (site GGTGCAACTTA)  0.221
62. GGTCCCTCATGGACCGGTTTTCCCGGTAATCCGTATTTGTG (site GGTCCCTCTCA)  0.413
63. GGTACGCCATGGACCGGTTTTCCCGGTAATCCGTATTTGTT (site GGTACGTCTAA)  0.426
64. GGTCCAACATGGACCGGTTTTCCCGGTAATCCGTATTTGTA (site GGTCCAACTTA)  0.431
65. GGTACGTCATGGACCGGTTTTCCCGGTAATCCGTATTTGAT (site GGTACGTCTAT)  0.46
66. GGTCCAACATGGACCGGTTTTCCCGGTAATCCGTATTTGTA (site GGTCCATCTTA)  0.583
67. GGTATGTCATGGACCGGTTTTCCCGGTAATCCGTATTTGTT (site GGTATGTCTAA)  0.586
68. GGTACGTCATGGACCGGTTTTCCCGGTAATCCGTATTTGTA (site GGTACGTCTTA)  0.651
69. GGTACTGCATGGACCGGTTTTCCCGGTAATCCGTATTTGCC (site GCTACTGCTGG)  0.662
70. GGTGAGGCATGGACCGGTTTTCCCGGTAATCCGTATTTGGT (site GGTGAGGCTAC)  1.1
71. GGTACTGCATGGACCGGTTTTCCCGGTAATCCGTATTTGCC (site GGTACTGCTGG)  1.58
72. GGTGAAGCATGGACCGGTTTTCCCGGTAATCCGTATTTGAG (site GGTGAAGCTCT)  1.82
73. GGTGAGTCATGGACCGGTTTTCCCGGTAATCCGTATTTGGC (site GGTGAGTCTGC)  2.23
74. GGTCACACATGGACCGGTTTTCCCGGTAATCCGTATTTGTC (site GGTCACACTGA)  2.3
75. GGTGACTCATGGACCGGTTTTCCCGGTAATCCGTATTTGAC (site GGTGACTCTGT)  2.47
